Assay results from patent US20250339443A1, “METHOD FOR TREATING OR PREVENTING CALCIUM RELEASE-ACTIVATED CALCIUM CHANNEL OR DISCOIDIN DOMAIN RECEPTOR 2 RELATED DISORDERS OR CONDITIONS” (LumiSTAR Biotechnology, Inc., priority 2023, published 2025).

Molecular target: T1, CRAC channel (Rattus norvegicus, UniProt Q5M848)
T1 construct: endogenous in cells; host or cells: HSC-T6
Test: CRAC channel activity / SOCE in HSC-T6
Format: cell-based
Conditions: HSC-T6, 10 μM pretreatment 45 min
Method: Cells were co-treated with various compounds (10 μM) and TGF-β1 for 24 hours. Following this, cell lysates were harvested, and the protein expression was assessed by Western blot analysis. FIG. 3D depicts the examination of TGF-β1-induced fibronectin deposition and α-SMA expression in HCF treated with 10 μM of DMSO, BTP2, WRG-28, or Av through immunofluorescence staining. The images were captured using a confocal microscope, the Olympus FV-1000. FIG. 3E, FIG. 3F, and FIG. 3G illustrate the assessment of CRAC channel activity in HCF, MRC5, and rat HSC-T6. These cells were pretreated with 10 μM of BTP2, WRG-28, or Av for 45 min. The evaluation included measuring the second peak of each calcium wave and the rate of entry. Each bar within the figure represents the mean value derived from 77 to 91 cells for HCF, 31 to 49 cells for MRC5, and 43 to 94 cells for HSC-T6. In all the graphs, *, **, and *** denote p-values of <0.05, 0.01, and 0.001, respectively.
Cells cultured on a glass-bottom 96 well plate for 48 hours were treated with different compounds (10 μM) and Fura 2-AM (1 μM) simultaneously in a solution containing 145 mM NaCl, 2.8 mM KCl, 2 mM CaCl2, 2 mM MgCl2, 10 mM D-glucose, 10 mM HEPES, pH 7.4 for 40 minutes in the dark. […] All the images were analyzed by using IGOR Pro software. […]

T1 sequence (Q5M848 whole entry): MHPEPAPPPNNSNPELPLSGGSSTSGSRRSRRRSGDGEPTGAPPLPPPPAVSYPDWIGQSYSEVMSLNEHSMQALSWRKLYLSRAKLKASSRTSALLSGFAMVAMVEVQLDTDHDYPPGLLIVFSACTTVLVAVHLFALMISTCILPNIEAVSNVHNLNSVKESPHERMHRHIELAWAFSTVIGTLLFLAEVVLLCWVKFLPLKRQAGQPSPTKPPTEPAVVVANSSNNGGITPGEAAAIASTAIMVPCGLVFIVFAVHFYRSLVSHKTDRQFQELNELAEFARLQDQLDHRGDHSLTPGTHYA

CCNS(=O)(=O)c1ccc(COc2ccc3nc4ccc(=O)cc-4oc3c2)cc1 [WRG-28]
SOCE: notably reduced
